Results on ten molecules are retold here after patent US20260193293A1, “PEPTIDES CAPABLE OF INHIBITING PROTEIN-PROTEIN INTERACTIONS AT GABAB1A SUBUNIT AND USES THEREOF” (UNIVERSITY OF COPENHAGEN, priority 2022, published 2026).

In this test the target is Sushi domains (SD1/2) protein. Kind of test: Fluorescence polarization (FP) competition assay with AJAP-1probe, calculated Ki. The format is binding. In outline:
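Competition against 25 nM TAMRA-labelled peptide probe binding SD1/2, in PBS pH 7.4 with 1% BSA at rt, read at 530/580 nm. IC50 from sigmoidal dose-response fits, at least triplicate; Ki calculated from IC50 using probe Kd from saturation binding.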

Setting [1] is: Table 1, affinity maturation, mean ± SEM, n ≥ 3, read-out: Ki.
Setting [2] is: Table 16, ncAAs incorporated peptides, read-out: Ki (nM) mean ± SEM.
Setting [3] is: Table 13, peptides for affinity maturation, read-out: Ki (nM) mean ± SEM.
[4] abbreviates: CPP tagged peptides overview, SD1/2 binding affinity, mean ± SEM, n ≥ 3, read-out: Ki.
Where [5] appears, read: Table 14, CPPs tagged peptides, read-out: Ki (nM) mean ± SEM.

Where “and” joins values, the source holds several entries; their conditions need not be identical. Equal entries are not always repeated. Where two headings read alike, the source gives them in different places. Non-standard residues stand in square brackets, D forms with d. Residues, ends and D or L forms follow the SMILES beside them. *: point of attachment. Bn = c1ccc(C*)cc1; Sar = CNCC(=O)O

With `CCOc1ccc(C[C@H](NC(=O)[C@H](CC(=O)O)NC(=O)[C@H](CC(=O)O)NC(=O)[C@H](CC(=O)O)NC(=O)[C@H](CCC(=O)O)NC(C)=O)C(=O)N[C@H](C(=O)N[C@@H](CC(=O)O)C(=O)N[C@@H](Cc2c[nH]c3ccccc23)C(=O)N[C@@H](Cc2ccc(O)cc2)C(=O)N[C@@H](CC(=O)O)C(=O)N[C@@H](CO)C(=O)N[C@@H](CC(=O)O)C(=O)N[C@@H](CC(=O)O)C(=O)N[C@@H](CC(=O)O)C(N)=O)[C@@H](C)CC)cc1` [Peptide 32], the Ki is 5.3 ± 0.2 nM under setting [1] and 5.3 ± 0.2 nM under setting [2].

With `CC[C@H](C)[C@H](NC(=O)[C@H](Cc1ccc(OCc2ccccc2)cc1)NC(=O)[C@H](CC(=O)O)NC(=O)[C@H](CC(=O)O)NC(=O)[C@H](CC(=O)O)NC(=O)[C@H](CCC(=O)O)NC(C)=O)C(=O)N[C@@H](CC(=O)O)C(=O)N[C@@H](Cc1c[nH]c2ccccc12)C(=O)N[C@@H](Cc1ccc(O)cc1)C(=O)N[C@@H](CC(=O)O)C(=O)N[C@@H](CO)C(=O)N[C@@H](CC(=O)O)C(=O)N[C@@H](CC(=O)O)C(=O)N[C@@H](CC(=O)O)C(N)=O` [Peptide 33], the Ki by setting is: under setting [1], 9.3 ± 0.2 nM; under setting [2], 9.3 ± 0.2 nM.

For `CCOc1ccc(C[C@H](NC(=O)[C@H](CC(=O)O)NC(=O)[C@H](CC(=O)O)NC(=O)[C@H](CC(=O)O)NC(=O)[C@H](CCC(=O)O)NC(C)=O)C(=O)N[C@H](C(=O)N[C@@H](CC(=O)O)C(=O)N[C@@H](Cc2c[nH]c3ccccc23)C(=O)NCC(=O)N2CCC[C@H]2C(=O)N[C@H](C(=O)N[C@@H](CO)C(=O)N[C@@H](CC(=O)O)C(=O)N[C@@H](CC(=O)O)C(=O)N[C@@H](CC(=O)O)C(N)=O)[C@@H](C)O)[C@@H](C)CC)cc1` [Peptide 34] (Ac-EDDDY(Et)IDWGPTSDDD-NH2), the Ki is, setting by setting: under setting [1], 6.5 ± 0.4 nM; under setting [2], 6.5 ± 0.4 nM.

Turning to `CC[C@H](C)[C@H](NC(=O)[C@H](Cc1ccc(OCc2ccccc2)cc1)NC(=O)[C@H](CC(=O)O)NC(=O)[C@H](CC(=O)O)NC(=O)[C@H](CC(=O)O)NC(=O)[C@H](CCC(=O)O)NC(C)=O)C(=O)N[C@@H](CC(=O)O)C(=O)N[C@@H](Cc1c[nH]c2ccccc12)C(=O)NCC(=O)N1CCC[C@H]1C(=O)N[C@H](C(=O)N[C@@H](CO)C(=O)N[C@@H](CC(=O)O)C(=O)N[C@@H](CC(=O)O)C(=O)N[C@@H](CC(=O)O)C(N)=O)[C@@H](C)O` [Peptide 35] (Ac-EDDDY(Bn)IDWGPTSDDD-NH2), the Ki is 9.5 ± 0.3 nM under setting [1] and 9.5 ± 0.3 nM under setting [2].

As for `CC(=O)N[C@@H](CCC(=O)O)C(=O)N[C@@H](CCC(=O)O)C(=O)N[C@@H](CC(=O)O)C(=O)N[C@@H](CC(=O)O)C(=O)N[C@@H](CO)C(=O)N[C@@H](CC(=O)O)C(=O)N[C@H](C(=O)N[C@@H](Cc1c[nH]c2ccccc12)C(=O)N[C@@H](Cc1c[nH]c2ccccc12)C(=O)NCC(=O)NCC(=O)N[C@@H](C)C(=O)N[C@@H](CC(=O)O)C(=O)N[C@H](C(=O)N[C@@H](CC(=O)O)C(=O)N[C@@H](Cc1ccc(O)cc1)C(=O)N[C@@H](C)C(=O)N[C@@H](CC(=O)O)C(N)=O)[C@@H](C)O)C(C)C` [Peptide 36] (Ac-EEDDSDVWWGGADTDYAD-NH2), the Ki is 244 ± 13 nM (Table 3, SPOT hit validation and previously reported peptides, read-out: Ki (nM) mean ± SEM); 244 nM and 233 nM (Table 4, truncation and elongation scans of APP epitope, listed as EEDDSDVWWGGADTDYAD, read-out: Ki (nM) mean ± SEM).

On to `CC[C@H](C)[C@H](NC(=O)[C@H](Cc1ccccc1)NC(=O)[C@H](CCC(=O)O)NC(=O)[C@@H](NC(=O)[C@H](CCC(=O)O)NC(C)=O)[C@@H](C)O)C(=O)N[C@@H](C)C(=O)N[C@@H](Cc1c[nH]c2ccccc12)C(=O)N[C@@H](Cc1ccc(O)cc1)C(=O)NCC(=O)N[C@@H](C)C(=O)N[C@@H](CC(=O)O)C(=O)N[C@H](C(=O)N[C@@H](CC(=O)O)C(N)=O)[C@@H](C)O` [Peptide 37] (Ac-ETEFIAWYGADTD-NH2), for which the Ki was 95 ± 5 nM under setting [1] and 95 ± 5 nM under setting [3].

As to `CC[C@H](C)[C@H](NC(=O)[C@H](Cc1ccccc1)NC(=O)[C@H](CCC(=O)O)NC(=O)[C@@H](NC(=O)[C@H](CCC(=O)O)NC(C)=O)[C@@H](C)O)C(=O)N[C@@H](C)C(=O)N[C@@H](Cc1c[nH]c2ccccc12)C(=O)NCC(=O)N(C)CC(=O)N[C@H](C(=O)NCC(=O)N[C@@H](CC(=O)O)C(=O)N[C@@H](CCC(=O)O)C(=O)N[C@@H](CC(=O)O)C(N)=O)[C@@H](C)O` [Peptide 38] (Ac-ETEFIAWG[Sar]TGDED-NH2), the Ki under setting [1] was 32 ± 2 nM; the Ki (Table 8, Ala-, D-amino acids and N-methylation scans of AJAP-1WT, read-out: Ki (nM) mean ± SEM) is 32 ± 2 nM; the Ki under setting [3] was 32 ± 2 nM.

In the case of `CC[C@H](C)[C@H](NC(=O)[C@H](Cc1c[nH]c2ccccc12)NC(=O)[C@H](CC(=O)O)NC(=O)[C@H](CC(=O)O)NC(=O)[C@H](CC(=O)O)NC(=O)[C@H](CCC(=O)O)NC(=O)[C@H](CO)NC(=O)CNC(=O)CNC(=O)CNC(=O)CNC(=O)[C@H](CCCNC(=N)N)NC(=O)[C@H](CCCNC(=N)N)NC(=O)[C@H](CCCNC(=N)N)NC(=O)[C@H](CCCNC(=N)N)NC(=O)[C@H](CCCNC(=N)N)NC(=O)[C@H](CCCNC(=N)N)NC(=O)[C@H](CCCNC(=N)N)NC(=O)[C@H](CCCNC(=N)N)NC(C)=O)C(=O)N[C@@H](CC(=O)O)C(=O)N[C@@H](Cc1c[nH]c2ccccc12)C(=O)N[C@@H](Cc1ccc(O)cc1)C(=O)N[C@@H](CC(=O)O)C(=O)N[C@@H](CO)C(=O)N[C@@H](CC(=O)O)C(=O)N[C@@H](CC(=O)O)C(=O)N[C@@H](CC(=O)O)C(N)=O` [Peptide R8-FL-16] (Ac-RRRRRRRRGGGGSEDDDWIDWYDSDDD-NH2), the Ki under setting [4] was 280 ± 2 nM and the Ki under setting [5] was 280 ± 2 nM.

On to `CC[C@H](C)[C@H](NC(=O)[C@H](Cc1c[nH]c2ccccc12)NC(=O)[C@H](CC(=O)O)NC(=O)[C@H](CC(=O)O)NC(=O)[C@H](CC(=O)O)NC(=O)[C@H](CCC(=O)O)NC(=O)[C@H](CO)NC(=O)CNC(=O)CNC(=O)CNC(=O)CNC(=O)[C@H](CCCNC(=N)N)NC(=O)[C@H](CCCNC(=N)N)NC(=O)[C@H](CCCNC(=N)N)NC(=O)[C@H](CCCNC(=N)N)NC(=O)[C@H](CCCNC(=N)N)NC(=O)[C@H](CCCNC(=N)N)NC(=O)[C@H](CCCNC(=N)N)NC(=O)[C@H](CCCNC(=N)N)NC(C)=O)C(=O)N[C@@H](CC(=O)O)C(=O)N[C@@H](Cc1c[nH]c2ccccc12)C(=O)NCC(=O)N1CCC[C@H]1C(=O)N[C@H](C(=O)N[C@@H](CO)C(=O)N[C@@H](CC(=O)O)C(=O)N[C@@H](CC(=O)O)C(=O)N[C@@H](CC(=O)O)C(N)=O)[C@@H](C)O` [Peptide R8-FL-17] (Ac-RRRRRRRRGGGGSEDDDWIDWGPTSDDD-NH2), for which the Ki runs as follows: under setting [4], 140 ± 4 nM; under setting [5], 140 ± 4 nM.

On to `CC[C@H](C)[C@H](NC(=O)[C@H](Cc1c[nH]c2ccccc12)NC(=O)[C@H](CC(=O)O)NC(=O)[C@H](CC(=O)O)NC(=O)[C@H](CC(=O)O)NC(=O)[C@H](CCC(=O)O)NC(=O)[C@H](CCCCN)NC(=O)[C@H](C)NC(=O)[C@H](C)NC(=O)[C@H](C)NC(=O)[C@H](CCC(=O)O)NC(=O)[C@H](CCCNC(=N)N)NC(=O)[C@H](CCCNC(=N)N)NC(=O)[C@H](CCCNC(=N)N)NC(=O)[C@H](CCCNC(=N)N)NC(=O)[C@H](CCCNC(=N)N)NC(=O)[C@H](CCCNC(=N)N)NC(=O)[C@H](CCCNC(=N)N)NC(=O)[C@H](CCCNC(=N)N)NC(C)=O)C(=O)N[C@@H](CC(=O)O)C(=O)N[C@@H](Cc1c[nH]c2ccccc12)C(=O)N[C@@H](Cc1ccc(O)cc1)C(=O)N[C@@H](CC(=O)O)C(=O)N[C@@H](CO)C(=O)N[C@@H](CC(=O)O)C(=O)N[C@@H](CC(=O)O)C(=O)N[C@@H](CC(=O)O)C(N)=O` [Peptide R8-RL-16] (Ac-RRRRRRRREAAAKEDDDWIDWYDSDDD-NH2), for which the Ki reads like this: under setting [4], 314 ± 4 nM; under setting [5], 314 ± 4 nM.
